Results: paper PMC6095608 (PLoS ONE, 2018)

Tests used:
parental MDCK cell line = experiment: Calcein efflux assay in parental MDCK cells; format: cell-based, canine; conditions: calcein AM 0.25 μM, efavirenz 0.01–50 μM
Procedure: ABC transporter-expressing MDCK cells were seeded in 96-well plates at a density of 25 x 10^3 cells per well and cultivated in DMEM medium supplemented with 10% FBS. […] Intracellular fluorescence was then measured using excitation and emission wavelengths of 350 nm and 465 nm, respectively. […] Calcein fluorescence was measured using excitation and emission wavelengths of 496 nm and 516 nm, respectively.

OCT2 [1] = molecular target: T1, OCT2 (Homo sapiens, UniProt O15244); experiment: Inhibition of net [14C]-metformin uptake in MDCK-OCT2 cells; format: cell-based; conditions: 50 μM metformin, 5 min, pH 7.4, efavirenz 0.01–50 μM, read-out: IC50, inhibition of net OCT2-mediated [14C]-metformin uptake
T1 construct: expressed in transfected cells; host or cells: MDCKII (MDCK-OCT2)
T1 sequence (O15244 1-555): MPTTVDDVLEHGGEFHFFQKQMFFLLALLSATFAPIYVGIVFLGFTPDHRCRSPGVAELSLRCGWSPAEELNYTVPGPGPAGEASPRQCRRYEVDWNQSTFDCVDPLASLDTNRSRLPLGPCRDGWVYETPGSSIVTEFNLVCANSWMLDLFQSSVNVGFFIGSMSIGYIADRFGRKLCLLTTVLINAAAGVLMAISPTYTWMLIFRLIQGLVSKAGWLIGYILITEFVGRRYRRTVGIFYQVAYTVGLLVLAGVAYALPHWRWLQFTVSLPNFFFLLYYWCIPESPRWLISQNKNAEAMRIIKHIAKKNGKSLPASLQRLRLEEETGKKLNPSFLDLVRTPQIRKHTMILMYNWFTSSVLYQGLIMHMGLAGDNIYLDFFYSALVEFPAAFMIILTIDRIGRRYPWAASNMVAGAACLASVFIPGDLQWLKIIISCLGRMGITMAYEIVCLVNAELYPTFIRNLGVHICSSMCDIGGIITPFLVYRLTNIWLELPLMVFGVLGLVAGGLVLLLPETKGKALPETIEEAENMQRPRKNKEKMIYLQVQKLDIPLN
Procedure: The singly-transfected OCT1, OCT2, MATE1 or control MDCK cells were seeded on 12-well plates at a density of 0.5 x 10^6 cells per well and cultivated in standard cultivation medium MEM (Gibco) + 10% FBS. Forty-eight hours after seeding, uptake experiments with radiolabelled metformin were performed. Cells were washed with 500 μl pre-warmed HBSS buffer of pH 7.4 (for OCTs) or 8.0 (for MATE1). Solutions of [^14C]-metformin (50 μM) in HBSS buffer of pH 7.4 or 8.0 with or without efavirenz were then added, and the resulting mixtures were left to stand for an accumulation period of 5 minutes. […] After the accumulation period, the solutions were aspirated and the cells were washed three times with 500 μl ice-cold HBSS buffer of pH 7.4 or 8.0 before being lysed with 0.02% sodium dodecyl sulphate (SDS). The intracellular accumulation of radioactivity was detected using a liquid scintillation counter (Tri-Carb 2910 TR Perkin Elmer), and protein concentrations in the cell lysates were measured by the BCA protein assay. Net transporter-mediated uptake was obtained by subtracting the accumulation of metformin in vector control cells from that in drug transporter-overexpressing cells.
A p value of ≤ 0.05 was considered statistically significant. […]

OCT2 [2] = molecular target: T1, OCT2; experiment: Transcellular transport assay across MDCK-OCT2 monolayers; format: cell-based; conditions: 10 μM efavirenz, 2 h
Procedure: Transport experiments employing polarized monolayers of MDCK-OCT1, MDCK-OCT2, or MDCK-MATE1 cell lines as well as doubly transfected MDCK-OCT1-MATE1 or MDCK-OCT2-MATE1 lines and the non-transfected parental control MDCK-Co cells grown on Transwell 3402 cell culture inserts (3.0 μm pore size, 24 mm diameter; Costar, Corning, NY) were performed as described previously. The number of cells per well was 0.5 x 10^6 in all experiments, and the cells were incubated for 3 days to confluence in standard cultivation medium MEM (Gibco) + 10% FBS. After 3 days’ cultivation, medium was removed from both sides and the cells of the monolayer were washed using pre-warmed PBS. […] The pH of the medium on the basolateral side was 7.4, while that on the apical side was set to 6.0 (adjusted by adding HCl or NaOH, when necessary) to ensure optimal MATE1 transport activity. Cells were incubated at 37°C in 5% CO2 for 2 hours. At the end of the incubation period, 50 μl aliquots were sampled and the rest of the medium was immediately removed. The cells were then washed twice with ice-cold PBS, the membranes supporting cellular monolayers were excised, and the cells were dissolved in a 0.02% SDS solution. The radioactivity of the collected samples and lysed monolayers was measured by liquid scintillation counting (Tri-Carb 2910 TR Perkin Elmer), and the protein concentration of the cell lysates was quantified using the BCA protein assay. Transport rates were recorded in pmol per mg protein in the cellular monolayer.

MDCK cell lines = experiment: Cytotoxicity seen in accumulation assays in MDCK cell lines; format: cell-based, canine; conditions: 100 μM, highest tested concentration, all accumulation assays and MDCK cell lines
Description: Therefore, both relative and absolute IC50 values are reported (Fig 3).

[3] = Efavirenz plasma concentration in patients (literature); format: in vivo, human; conditions: calculated from average plasma concentration and unbound percentage
MDR1 = MDR1 (Homo sapiens, UniProt P08183); experiment: Hoechst 33342 accumulation assay in MDCK-MDR1 cells
Chain of MDR1 (P08183 whole entry): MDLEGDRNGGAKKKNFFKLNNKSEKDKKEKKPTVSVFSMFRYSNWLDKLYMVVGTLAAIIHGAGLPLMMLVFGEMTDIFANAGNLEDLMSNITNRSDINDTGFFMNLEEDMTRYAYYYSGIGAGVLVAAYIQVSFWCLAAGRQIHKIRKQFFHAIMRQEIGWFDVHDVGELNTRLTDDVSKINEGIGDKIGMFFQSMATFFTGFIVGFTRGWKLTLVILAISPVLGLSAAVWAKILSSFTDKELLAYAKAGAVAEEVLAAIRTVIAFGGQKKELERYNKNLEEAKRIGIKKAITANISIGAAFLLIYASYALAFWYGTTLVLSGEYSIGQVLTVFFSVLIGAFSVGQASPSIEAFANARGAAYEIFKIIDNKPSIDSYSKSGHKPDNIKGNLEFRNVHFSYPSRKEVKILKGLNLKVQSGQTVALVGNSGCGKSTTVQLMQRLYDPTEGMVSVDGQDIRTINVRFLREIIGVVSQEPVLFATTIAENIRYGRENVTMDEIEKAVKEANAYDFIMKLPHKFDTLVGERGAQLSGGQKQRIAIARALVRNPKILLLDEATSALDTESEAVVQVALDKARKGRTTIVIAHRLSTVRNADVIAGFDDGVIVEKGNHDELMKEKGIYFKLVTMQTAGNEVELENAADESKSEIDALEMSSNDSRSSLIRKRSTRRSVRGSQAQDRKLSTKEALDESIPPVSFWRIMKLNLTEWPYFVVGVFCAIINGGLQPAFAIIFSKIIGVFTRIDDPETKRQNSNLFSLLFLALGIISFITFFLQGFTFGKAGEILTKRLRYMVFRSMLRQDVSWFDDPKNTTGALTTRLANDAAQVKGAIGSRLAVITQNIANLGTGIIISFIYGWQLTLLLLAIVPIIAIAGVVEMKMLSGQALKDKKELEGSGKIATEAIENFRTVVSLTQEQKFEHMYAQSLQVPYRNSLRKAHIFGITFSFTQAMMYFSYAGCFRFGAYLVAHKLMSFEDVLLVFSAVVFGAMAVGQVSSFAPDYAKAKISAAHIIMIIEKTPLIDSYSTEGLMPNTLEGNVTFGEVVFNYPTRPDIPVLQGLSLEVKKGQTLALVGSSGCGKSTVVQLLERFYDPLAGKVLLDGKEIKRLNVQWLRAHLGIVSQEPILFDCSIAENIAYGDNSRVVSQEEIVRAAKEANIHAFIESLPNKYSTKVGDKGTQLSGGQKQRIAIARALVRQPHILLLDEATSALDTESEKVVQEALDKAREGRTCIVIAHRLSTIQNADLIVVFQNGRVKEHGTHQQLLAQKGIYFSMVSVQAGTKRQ
Procedure: ABC transporter-expressing MDCK cells were seeded in 96-well plates at a density of 25 x 10^3 cells per well and cultivated in DMEM medium supplemented with 10% FBS. Forty-eight hours after seeding, the cells were used in accumulation experiments with Hoechst 33342 (a common fluorescent substrate of MDR1 and BCRP) or efflux assays with Calcein (a fluorescent substrate of MRP2). Briefly, at the end of the 48 hours, the medium was aspirated and the cells were washed with pre-warmed PBS and then preincubated with efavirenz in Opti-MEM for 30 minutes. In the Hoechst 33342 assays, a solution of Hoechst 33342 (50 μg/ml) in Opti-MEM was added and allowed to accumulate for 30 minutes. The experiment was stopped by aspirating the medium and washing the cells twice with ice cold PBS. Intracellular fluorescence was then measured using excitation and emission wavelengths of 350 nm and 465 nm, respectively. In the calcein efflux assays, a solution of calcein AM in Opti-MEM with or without efavirenz was added after the pre-incubation phase and allowed to accumulate for 15 minutes. […] Calcein fluorescence was measured using excitation and emission wavelengths of 496 nm and 516 nm, respectively.
Statistical analyses were performed using GraphPad Prism, version 7.03 (GraphPad Software, San Diego, CA). P values were calculated using multiple two-tailed t-tests or one-way ANOVA followed by Dunnett’s or Bonferroni’s multiple comparison test, as appropriate. […] The half-maximal inhibitory concentration (IC50) was calculated by non-linear regression analysis using sigmoidal Hill kinetics.
Model inhibitors of MDR1, BCRP and MRP2, namely LY335979 (LY, 1 μM), Ko143 (2.5 μM), and MK571 (10 μM), respectively, were used as positive controls at the minimal concentrations causing maximal inhibition in the corresponding cellular system and assay. […] Data were analyzed by one-way ANOVA followed by Bonferroni’s multiple comparison test (* P ≤ 0.05, ** P ≤ 0.01, *** P ≤ 0.001) and are presented as means ± SD of at least three experiments (n = 3–5) performed in triplicate.

MATE2-K = molecular target: T2, MATE2-K (Homo sapiens, UniProt Q86VL8); experiment: Inhibition of net [14C]-metformin uptake in HEK-MATE2-K cells; format: cell-based; conditions: HEK 293 cells expressing MATE2-K (HEK-MATE2-K), probe [14C]-metformin (50 μM), 50 μM efavirenz (highest tested), 50 μM metformin, p = 0.119, read-out: Inhibition of MATE2-K-mediated metformin transport
T2 construct: expressed in transfected cells; host or cells: HEK293 (transient, HEK-MATE2-K)
T2 sequence (Q86VL8 1-566 isoform Q86VL8-3): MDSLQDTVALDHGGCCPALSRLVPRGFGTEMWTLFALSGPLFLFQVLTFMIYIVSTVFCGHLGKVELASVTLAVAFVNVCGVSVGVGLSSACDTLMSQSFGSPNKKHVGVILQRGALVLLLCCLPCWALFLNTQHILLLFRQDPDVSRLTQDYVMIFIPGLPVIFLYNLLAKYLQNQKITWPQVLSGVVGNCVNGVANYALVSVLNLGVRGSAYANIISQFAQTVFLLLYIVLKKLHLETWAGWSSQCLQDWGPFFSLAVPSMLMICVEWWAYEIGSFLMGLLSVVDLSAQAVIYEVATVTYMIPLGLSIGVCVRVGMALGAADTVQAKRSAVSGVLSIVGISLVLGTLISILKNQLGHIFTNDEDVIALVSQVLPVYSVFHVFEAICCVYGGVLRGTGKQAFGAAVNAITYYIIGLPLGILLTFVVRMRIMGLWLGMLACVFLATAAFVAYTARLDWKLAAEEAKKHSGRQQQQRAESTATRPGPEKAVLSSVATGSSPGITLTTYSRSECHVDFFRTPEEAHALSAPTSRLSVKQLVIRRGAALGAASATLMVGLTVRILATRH
Procedure: Experiments on the uptake of metformin in HEK 293-cells mediated by MATE2-K were performed as previously described. The number of cells per well was 7.0x10^5 for HEK-MATE2-K cells and 3.5x10^5 for HEK-Co cells to compensate for differences in protein concentration in the two lines. To determine the inhibitory effect of efavirenz, this drug was added to the [^14C]-metformin (50 μM) incubation medium at concentrations of 0.01 μM, 0.1 μM, 1 μM, 5 μM, 10 μM, 25 μM, or 50 μM. […] The net uptake was then calculated as described above.

O=C1Nc2ccc(Cl)cc2[C@@](C#CC2CC2)(C(F)(F)F)O1 [efavirenz, Efavirenz]
Inhibition of calcein efflux from parental MDCK cells (parental MDCK cell line): not | IC50 (OCT2 [1]): 5.66 µM | Effect on basolateral-to-apical transport of [3H]-MPP+ (OCT2 [2]; 2 nM MPP+, MDCK-OCT2): Inhibition | Effect on intracellular accumulation of [3H]-MPP+ (OCT2 [2]; 2 nM MPP+, MDCK-OCT2 monolayers): significantly reduced | Effect on intracellular accumulation of [3H]-lamivudine (OCT2 [2]; 10 nM lamivudine, MDCK-OCT2): significantly reduced | Effect on transcellular transport of [3H]-lamivudine (OCT2 [2]; 10 nM lamivudine, basal to apical, MDCK-OCT2): significantly inhibited | Cytotoxicity in MDCK cell lines (MDCK cell lines): cytotoxicity | 50x the unbound concentration of efavirenz in elimination organs [3]: around 2.7 μM | Concentrations showing an inhibitory effect on MDR1 (MDR1; Hoechst 33342 accumulation): ≥ 25 µM | IC50 (MDR1; MDR1 absolute IC50, Hoechst 33342 accumulation, control inhibitor LY335979 1 μM = 100%): 33.3 µM | IC50 (MDR1; MDR1 relative IC50, Hoechst 33342 accumulation, maximal inhibition by efavirenz alone = 100%): 24.4 µM | inhibition at 3 min, 50 μM (MATE2-K): 48.1%
